Calls of active or inactive are those of the source. The rule behind the calls is not given here.
Tests used:
[1] = Cytotoxicity against rat NRK cells assessed as inhibition of cell growth measured after 72 hrs by MTT assay; type: toxicity, cell-based
SK-MEL-28 = experiment: Cytotoxicity against human SK-MEL-28 cells assessed as inhibition of cell growth measured after 72 hrs by MTT assay; type: functional, cell-based; conditions: SK-MEL-28, 72 h
BT-474 = experiment: Cytotoxicity against human BT-474 cells assessed as inhibition of cell growth measured after 72 hrs by MTT assay; type: functional, cell-based; conditions: BT-474, 72 h
A549 = experiment: Cytotoxicity against human A549 cells assessed as inhibition of cell growth measured after 72 hrs by MTT assay; type: functional, cell-based; conditions: A549, 72 h
MCF7 = experiment: Cytotoxicity against human MCF7 cells assessed as inhibition of cell growth measured after 72 hrs by MTT assay; type: functional, cell-based; conditions: MCF7, 72 h
HCT-116 [2] = experiment: Cytotoxicity against human HCT-116 cells assessed as inhibition of cell growth measured after 72 hrs by MTT assay; type: functional, cell-based; conditions: HCT-116, 72 h
HCT-116 [3] = experiment: Induction of nuclear morphological changes in human HCT-116 cells assessed as horseshoe shaped nuclei formation measured after 48 hrs by DAPI-staining based fluorescence microscopic analysis; type: functional, cell-based
HCT-116 [4] = experiment: Induction of morphological changes in human HCT-116 cells assessed as formation of apoptotic bodies incubated for 24 hrs by acridine orange/ethidium bromide staining based fluorescence microscopic analysis; type: functional, cell-based
HCT-116 [5] = experiment: Inhibition of cell invasion in human HCT-116 cells at 3.36 to 13.46 uM measured after 48 hrs by phase contrast microscopic analysis; type: functional, cell-based; conditions: dose 3.36-13.46 µM
HCT-116 [6] = experiment: Induction of nuclear morphological changes in human HCT-116 cells assessed as change in nuclear shape measured after 48 hrs by DAPI-staining based fluorescence microscopic analysis; type: functional, cell-based
HCT-116 [7] = experiment: Induction of apoptosis in human HCT-116 cells assessed as reduction in cell viability at 3.36 to 13.46 uM measured after 48 hrs by phase contrast microscope; type: functional, cell-based; conditions: dose 3.36-13.46 µM
HCT-116 [8] = experiment: Induction of morphological changes in human HCT-116 cells assessed as cell detachment at 3.36 to 13.46 uM measured after 48 hrs by phase contrast microscope; type: functional, cell-based; conditions: dose 3.36-13.46 µM
HCT-116 [9] = experiment: Induction of morphological changes in human HCT-116 cells assessed as formation of necrotic bodies incubated for 24 hrs by acridine orange/ethidium bromide staining based fluorescence microscopic analysis; type: functional, cell-based
HCT-116 [10] = experiment: Induction of nuclear morphological changes in human HCT-116 cells assessed as change in nuclear condensation measured after 48 hrs by DAPI-staining based fluorescence microscopic analysis; type: functional, cell-based
HCT-116 [11] = experiment: Induction of morphological changes in human HCT-116 cells assessed as cell nucleus shrinkage at 3.36 to 13.46 uM measured after 48 hrs by phase contrast microscope; type: functional, cell-based; conditions: dose 3.36-13.46 µM
HCT-116 [12] = experiment: Induction of ROS production in human HCT-116 cells at 3.36 uM incubated for 72 hrs by DCFDA staining based fluorescence microscopic analysis; type: functional, cell-based

Row | SMILES | IC50 at 72 h [1] [µM] | IC50 (SK-MEL-28) [µM] | IC50 (BT-474) [µM] | IC50 (A549) [µM] | IC50 (MCF7) [µM] | IC50 (HCT-116 [2]) [µM] | Activity (HCT-116 [3]) | Activity (HCT-116 [4]) | inhibition (HCT-116 [5]) | Activity (HCT-116 [6]) | Activity (HCT-116 [7]) | Activity (HCT-116 [8]) | Activity (HCT-116 [9]) | Activity (HCT-116 [10]) | Activity (HCT-116 [11]) | Activity (HCT-116 [12])
1 | COc1cccc(-c2nnc(SC3(CNS(=O)(=O)C(C)(C)C)C(=O)N(Cc4ccc(Br)cc4)c4ccccc43)n2-c2ccccc2)c1 (stereo unspecified) | 21.8 | 26.1 | 13.8 | > 50 | 35.8 | > 50 | – | – | – | – | – | – | – | – | – | –
2 | Cc1ccc2c(c1)C(CNS(=O)(=O)C(C)(C)C)(Sc1nc3ccccc3s1)C(=O)N2C (stereo unspecified) | 26.8 | 23.6 | 13.2 | 18.2 | 17.2 | 8.99 | – | – | – | – | – | – | – | – | – | –
3 | O=c1[nH]cc(F)c(=O)[nH]1 [FLUOROURACIL] | – | – | – | 25.4 | 24.8 | 16.6 | – | – | – | – | – | – | – | – | – | –
4 | COc1cccc(-c2nnc(SC3(CNS(=O)(=O)C(C)(C)C)C(=O)N(Cc4ccccc4)c4ccccc43)o2)c1 (stereo unspecified) | 22.9 | 15.3 | 14 | 30.7 | > 50 | > 50 | – | – | – | – | – | – | – | – | – | –
5 | CC(C)(C)S(=O)(=O)NCC1(Sc2nnc(-c3cccc(Br)c3)o2)C(=O)N(Cc2ccccc2)c2ccccc21 (stereo unspecified) | 14.1 | 12.6 | 12.7 | 12.1 | 12.8 | 12.1 | – | – | – | – | – | – | – | – | – | –
6 | CC(C)(C)S(=O)(=O)NCC1(Sc2nnc(-c3ccccc3)o2)C(=O)N(Cc2ccccc2)c2ccccc21 (stereo unspecified) | 31.9 | 17.7 | 14.5 | 14.2 | 15.5 | 15.4 | – | – | – | – | – | – | – | – | – | –
7 | CC(C)(C)S(=O)(=O)NCC1(Sc2nc3ccccc3[nH]2)C(=O)N(Cc2ccccc2)c2ccccc21 (stereo unspecified) | 17.9 | 22.3 | 15.2 | 31.2 | > 50 | 43.1 | – | – | – | – | – | – | – | – | – | –
8 | CC(C)(C)S(=O)(=O)NCC1(Sc2nnc(-c3ccc(Cl)c(Cl)c3)o2)C(=O)N(Cc2ccc(Br)cc2)c2ccccc21 (stereo unspecified) | 21.9 | 13.7 | 15.3 | 41.7 | > 50 | > 50 | – | – | – | – | – | – | – | – | – | –
9 | CC(C)(C)S(=O)(=O)NCC1(Sc2nnc(-c3ccc(Cl)cc3)n2-c2ccccc2)C(=O)N(Cc2ccccc2)c2ccccc21 (stereo unspecified) | 24.8 | > 50 | 16 | > 50 | 45 | > 50 | – | – | – | – | – | – | – | – | – | –
10 | CN1C(=O)C(CNS(=O)(=O)C(C)(C)C)(Sc2nc3ccccc3[nH]2)c2cc(Br)ccc21 (stereo unspecified) | 25.7 | 16.8 | 13.1 | 18.2 | 12.8 | 12.3 | – | – | – | – | – | – | – | – | – | –
11 | Cc1ccc(CN2C(=O)C(CNS(=O)(=O)C(C)(C)C)(Sc3nnc(-c4ccccc4)o3)c3ccccc32)cc1 (stereo unspecified) | 18 | 17.1 | 12.3 | 14.2 | 13.9 | 6.73 | Dose-Dependent Effect | Dose-Dependent Effect | Active | Dose-Dependent Effect | Active | Active | Active | Dose-Dependent Effect | Active | Active
12 | Cc1ccc2c(c1)C(CNS(=O)(=O)C(C)(C)C)(Sc1nnc(-c3ccccc3)o1)C(=O)N2Cc1ccccc1 (stereo unspecified) | 12.7 | 15.6 | 23.6 | > 50 | 34.3 | > 50 | – | – | – | – | – | – | – | – | – | –
13 | CC(C)(C)S(=O)(=O)NCC1(Sc2nnc(-c3ccccc3)o2)C(=O)N(Cc2ccccc2)c2ccc(F)cc21 (stereo unspecified) | 33.3 | 30.4 | 16.7 | 37.8 | 40.4 | > 50 | – | – | – | – | – | – | – | – | – | –
14 | Cc1ccc(CN2C(=O)C(CNS(=O)(=O)C(C)(C)C)(Sc3nc4ccccc4[nH]3)c3ccccc32)cc1 (stereo unspecified) | 21.8 | 33.6 | 13.3 | 13.2 | 13.9 | 8.96 | – | – | – | – | – | – | – | – | – | –
